Test results taken from PubChem BioAssay (NCI).
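Values below derive from 48-hour exposures of cells grown in 96-well plates, with endpoints linearly interpolated between the two concentrations bracketing the appropriate inhibition level. At the GI50, growth is halved. The concentration for full growth arrest is given as TGI.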

Experiments:
Assay in all cases: inhibition of tumour cell growth, NCI panel, 48 h
U251 CNS = test system: U251 CNS
MCF7 breast = test system: MCF7 breast
786-0 renal = test system: 786-0 renal
SN12C renal = test system: SN12C renal
HL-60(TB) leukemia = test system: HL-60(TB) leukemia
ACHN renal = test system: ACHN renal
T-47D breast = test system: T-47D breast
K-562 leukemia = test system: K-562 leukemia
A549 NSCLC = test system: A549 NSCLC
MOLT-4 leukemia = test system: MOLT-4 leukemia

| SMILES | TGI (U251 CNS) [µM] | TGI (MCF7 breast) [µM] | TGI (786-0 renal) [µM] | TGI (SN12C renal) [µM] | TGI (HL-60(TB) leukemia) [µM] | TGI (ACHN renal) [µM] | TGI (T-47D breast) [µM] | TGI (K-562 leukemia) [µM] | TGI (A549 NSCLC) [µM] | TGI (MOLT-4 leukemia) [µM] | GI50 (U251 CNS) [µM] | GI50 (MCF7 breast) [µM] | GI50 (786-0 renal) [µM] | GI50 (SN12C renal) [µM] | GI50 (HL-60(TB) leukemia) [µM] | GI50 (ACHN renal) [µM] | GI50 (T-47D breast) [µM] | GI50 (K-562 leukemia) [µM] | GI50 (A549 NSCLC) [µM] | GI50 (MOLT-4 leukemia) [µM] |
| --- | --- | --- | --- | --- | --- | --- | --- | --- | --- | --- | --- | --- | --- | --- | --- | --- | --- | --- | --- | --- |
| COc1cc(OC)c(OC)cc1/C=C/c1ccc2ccccc2n1 | > 10 | > 10 | > 10 | > 10 | > 10 | > 10 | > 10 | > 10 | > 10 | > 10 |  |  |  |  |  |  |  |  |  |  |
| C=C1[C@H](O)C[C@@H](C(C)C(O)CC=C(C)C)[C@@H](O)[C@@H]2C(C)=CC[C@@H]12 (stereo not given in full) | > 100 | > 100 | > 100 | > 100 | > 100 | > 100 | > 100 | > 100 | > 100 | > 100 | > 100 | > 100 | > 100 | > 100 | > 100 | > 100 | > 100 | 53 | > 100 | 35.1 |
| CS(=O)(=O)Nc1cc(-c2ccc3ncnc(Nc4ccc(OCc5ccccn5)c(Cl)c4)c3c2)cnc1Cl | 2.31 | > 100 | > 100 | > 100 | 2.72 | > 100 | 0.217 | > 100 | 5.48 | 0.75 | 0.316 | 0.185 | 0.804 | 0.35 | 0.23 | 1.02 | 0.0258 | 1.29 | 1.09 | 0.223 |
| COc1cc2cc(C(=O)Nc3ccccc3)c(N)nc2cc1OC | > 100 | > 100 | > 100 | > 100 | > 100 | > 100 | > 100 | > 100 | > 100 | > 100 | 43.1 | 48.8 | 31.7 | 53.8 | 43.6 | 39.4 | 23.6 | 41.7 | 63.1 | 38.5 |
| O=C(COc1ccc(Cl)cc1Cl)NNc1ccc([N+](=O)[O-])cc1 | 43.6 | > 100 | 61.2 | > 100 | > 100 | > 100 | > 100 | > 100 | > 100 | > 100 | 20.1 | > 100 | 25.6 | 80 | > 100 | 51.5 | 43.3 | 39 | > 100 | 81.6 |
| O=C(C#Cc1ccccc1)N1CCCCC1 | > 100 | > 100 | > 100 | > 100 | > 100 | > 100 | > 100 | > 100 | > 100 | > 100 |  |  |  |  |  |  |  |  |  |  |
| CN(N=O)N1C(=O)SCC(c2ccccc2)(c2ccccc2)C1=O | > 100 | 62.2 | > 100 | > 100 | > 100 | > 100 | > 100 | > 100 | > 100 | > 100 |  |  |  |  |  |  |  |  |  |  |
